Source: PMC12706802, “Ortho-Hydroxyanilides: Slow-Acting, Selective Histone Deacetylase 1/2 Inhibitors Suitable for Photocaging Applications” (ACS Pharmacology & Translational Science, 2025)
Like-named read-outs stand apart in the source and are kept apart here.

Columns and labels:
HDAC2 = HDAC2 (Homo sapiens, UniProt Q92769); assay: Fluorescence-based biochemical HDAC enzyme inhibition assay (ZMAL substrate)
Protocol: (§2) First, the inhibitory activity and isoform selectivity of compounds and controls (see Figure ) was evaluated in a fluorescence-based biochemical HDAC inhibition assay against recombinant HDAC1, HDAC2, HDAC3, and HDAC6. […] First, 3-fold serial dilutions of test compounds were prepared in DMSO. […] IC50 values were determined by generating normalized dose–response curves using the three-parameter logistic equation (GraphPad Prism 8.0, San Diego, USA).

HDAC1 = HDAC1 (Homo sapiens, UniProt Q13547); assay: as above
Protocol: as §2

MDA-MB-231 cells = assay: MTT cell viability (antiproliferative) assay; type: cell-based; conditions: Homo sapiens, MDA-MB-231, light or radiation study
Protocol: (§1) To evaluate the cytotoxicity of the selected HDAC inhibitors, compounds were tested for their antiproliferative activity against MV-3 and MDA-MB-231 cells using the MTT assay. […] MTT (3-(4,5-dimethylthiazol-2-yl)-2,5-diphenyltetrazolium bromide; Catalog# A2231; BioChemica, Applichem GmbH, Darmstadt, Germany) was utilized to measure the antiproliferative effect. Depending on the incubation time, 3000 MV-3 cells (72 h), 2000 MV-3 cells (96 h) or 1000 MV-3 cells (120 h) per well were seeded in 96-well plates (Starlab GmbH, Hamburg, Germany) with each well containing 199 μL of volume. […] Next, predilutions of the test compounds were prepared in DMSO. […] Subsequently, cells were treated with 1.0 μL of the dilution series of the test compounds. […] After removing the supernatant, formazan was solubilized in 200.0 μL DMSO. The absorbance was measured at 570 nm with background subtraction at 690 nm using a Multiskan microplate photometer (Thermo Fisher Scientific, Waltham, MA, USA). The obtained data were normalized to PBS, considering 100% viability.

human recombinant HDAC3 = human recombinant HDAC3 (Homo sapiens, UniProt O15379); assay: Fluorescence-based biochemical HDAC enzyme inhibition assay (ZMAL substrate)
Protocol: as §2

[1] = tested on: HDACs in MDA-MB-231 cells; assay: HDAC whole cell inhibition assay; conditions: for EC50: Homo sapiens, MDA-MB-231, light or radiation study, read-out: whole-cell HDAC inhibition EC50, MDA-MB-231
Protocol: (§3) Furthermore, we determined the EC50 values in the nontumorigenic cell line HEK293 and in the hematological cancer cell line MM.1S.
(§4) For this purpose, 3-fold serial dilutions of test compounds (DMSO) were prepared and added at a volume of 0.5 μL to the cells. […] MAL was used in a final concentration of 0.3 mM in the respective cell culture medium with 0.5% IGEPAL CA-630 (Catalog# J61055, Alfa Aesar). […] The obtained data were normalized to vehicle treated cells, considering 100% enzyme activity. IC50 values were determined by generating dose–response curves using the four-parameter logistic equation (GraphPad Prism 8.0, San Diego, USA).

[2] = HPLC photolysis experiments (release of ST13 from ST17); type: physicochemical; conditions: 10 min
Protocol: The deprotection of ST17 and its effective conversion (82%) to its parent HDAC inhibitor ST13 upon irradiation (10 min; λ = 365 nm) was confirmed by high-performance liquid chromatography (HPLC) experiments (see Figure S3, Supporting Information). Next, ST17 was tested for its inhibitory activity against HDAC1, HDAC2, HDAC3, and HDAC6 with and without irradiation at 365 nm (see Table ).
For the deprotection experiments, 10 μL of a 1 mM ST17 solution in DMSO were irradiated for 10 min. Subsequently, samples were diluted with acetonitrile to a final concentration of 100 μM and analyzed via HPLC/UV (λquant = 250 nm) using the area under the curve (area [mAU × min]) for quantification. The amount of ST13 released from the photocager ST17 was quantified using a calibration curve of ST13 (see Figure S2).

human recombinant HDAC6 = target: T1, human recombinant HDAC6 (Homo sapiens, UniProt Q9UBN7); assay: Fluorescence-based biochemical HDAC enzyme inhibition assay (ZMAL substrate)
T1 sequence (Q9UBN7 1-1215): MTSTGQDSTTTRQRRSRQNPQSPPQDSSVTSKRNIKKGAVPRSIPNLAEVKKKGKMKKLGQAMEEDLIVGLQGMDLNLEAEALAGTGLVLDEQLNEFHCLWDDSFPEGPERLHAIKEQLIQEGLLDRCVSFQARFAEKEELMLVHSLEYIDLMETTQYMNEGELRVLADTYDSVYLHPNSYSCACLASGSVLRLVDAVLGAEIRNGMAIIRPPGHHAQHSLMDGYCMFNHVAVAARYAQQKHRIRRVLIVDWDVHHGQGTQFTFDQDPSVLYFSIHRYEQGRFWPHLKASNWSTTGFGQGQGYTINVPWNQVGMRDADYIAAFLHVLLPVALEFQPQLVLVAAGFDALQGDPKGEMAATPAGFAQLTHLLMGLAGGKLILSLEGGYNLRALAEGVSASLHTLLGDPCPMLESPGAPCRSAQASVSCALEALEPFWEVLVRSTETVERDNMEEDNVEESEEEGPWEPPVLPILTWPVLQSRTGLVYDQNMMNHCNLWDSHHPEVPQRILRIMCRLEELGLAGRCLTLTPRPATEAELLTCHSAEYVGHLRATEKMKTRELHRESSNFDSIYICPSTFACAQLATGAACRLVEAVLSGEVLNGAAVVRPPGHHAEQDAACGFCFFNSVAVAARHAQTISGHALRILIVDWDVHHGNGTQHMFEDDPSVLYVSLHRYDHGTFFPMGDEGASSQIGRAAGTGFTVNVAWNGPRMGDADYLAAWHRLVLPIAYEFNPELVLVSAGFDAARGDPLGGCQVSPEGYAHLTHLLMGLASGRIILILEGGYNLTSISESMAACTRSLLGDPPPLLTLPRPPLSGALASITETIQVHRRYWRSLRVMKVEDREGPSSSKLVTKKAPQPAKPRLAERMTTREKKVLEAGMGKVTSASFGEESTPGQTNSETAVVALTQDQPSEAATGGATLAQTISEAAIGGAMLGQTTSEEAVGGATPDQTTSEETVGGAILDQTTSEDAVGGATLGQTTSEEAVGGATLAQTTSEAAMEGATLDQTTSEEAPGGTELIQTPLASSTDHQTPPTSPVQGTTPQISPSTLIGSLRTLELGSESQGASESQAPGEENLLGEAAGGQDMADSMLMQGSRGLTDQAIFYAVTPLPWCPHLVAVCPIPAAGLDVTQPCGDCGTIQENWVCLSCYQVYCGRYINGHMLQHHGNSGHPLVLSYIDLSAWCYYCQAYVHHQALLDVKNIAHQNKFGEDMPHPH
Protocol: as §2

MV-3 cells = assay: MTT cell viability (antiproliferative) assay; type: cell-based, human; conditions: Homo sapiens, read-out: MV-3 EC50 (MTT)
Protocol: as §1

HDACs in MV-3 cells = assay: HDAC whole cell inhibition assay; conditions: for EC50: Homo sapiens, MV-3, light or radiation study, read-out: whole-cell HDAC inhibition EC50, MV-3
Protocol: as §3, §4

HDAC6 = tested on: HDAC6; set-up: method as in earlier work; conditions: Figure 1; ref 'Data taken from refs' (numbers not given); cited from earlier work
[3] = HDAC2 IC50, preincubation of enzyme and inhibitor 1 h at RT, no irradiation
[4] = HDAC1 IC50, preincubation of enzyme and inhibitor 1 h at RT, no irradiation

Sequence of HDAC2 (Q92769 whole entry): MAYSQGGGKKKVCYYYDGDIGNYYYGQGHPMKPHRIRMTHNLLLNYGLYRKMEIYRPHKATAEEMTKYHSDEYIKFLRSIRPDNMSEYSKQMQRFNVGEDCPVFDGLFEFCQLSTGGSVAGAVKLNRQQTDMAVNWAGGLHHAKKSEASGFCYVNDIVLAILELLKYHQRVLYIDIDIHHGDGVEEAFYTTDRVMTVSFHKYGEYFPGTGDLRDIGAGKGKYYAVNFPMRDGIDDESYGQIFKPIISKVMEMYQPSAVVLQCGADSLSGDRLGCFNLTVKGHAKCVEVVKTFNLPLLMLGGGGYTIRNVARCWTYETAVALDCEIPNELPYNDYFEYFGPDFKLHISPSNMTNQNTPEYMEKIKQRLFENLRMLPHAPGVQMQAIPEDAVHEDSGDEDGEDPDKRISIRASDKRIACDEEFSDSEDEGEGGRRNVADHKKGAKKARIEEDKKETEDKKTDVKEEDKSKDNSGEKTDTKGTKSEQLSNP
Sequence of HDAC1 (Q13547 whole entry): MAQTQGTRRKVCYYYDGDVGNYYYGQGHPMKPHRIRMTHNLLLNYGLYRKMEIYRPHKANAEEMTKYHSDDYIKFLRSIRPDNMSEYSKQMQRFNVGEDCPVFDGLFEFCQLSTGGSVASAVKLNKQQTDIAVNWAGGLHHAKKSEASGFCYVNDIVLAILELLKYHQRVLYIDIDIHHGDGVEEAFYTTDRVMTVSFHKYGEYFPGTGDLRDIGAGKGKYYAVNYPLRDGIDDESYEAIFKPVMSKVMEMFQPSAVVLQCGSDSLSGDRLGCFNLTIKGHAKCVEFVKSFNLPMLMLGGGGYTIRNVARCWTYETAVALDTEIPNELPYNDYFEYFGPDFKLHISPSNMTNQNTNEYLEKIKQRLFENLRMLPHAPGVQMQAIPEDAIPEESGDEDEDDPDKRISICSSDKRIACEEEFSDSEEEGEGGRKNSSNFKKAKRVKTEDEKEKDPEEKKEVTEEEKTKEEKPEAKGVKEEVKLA
Sequence of human recombinant HDAC3 (O15379 whole entry): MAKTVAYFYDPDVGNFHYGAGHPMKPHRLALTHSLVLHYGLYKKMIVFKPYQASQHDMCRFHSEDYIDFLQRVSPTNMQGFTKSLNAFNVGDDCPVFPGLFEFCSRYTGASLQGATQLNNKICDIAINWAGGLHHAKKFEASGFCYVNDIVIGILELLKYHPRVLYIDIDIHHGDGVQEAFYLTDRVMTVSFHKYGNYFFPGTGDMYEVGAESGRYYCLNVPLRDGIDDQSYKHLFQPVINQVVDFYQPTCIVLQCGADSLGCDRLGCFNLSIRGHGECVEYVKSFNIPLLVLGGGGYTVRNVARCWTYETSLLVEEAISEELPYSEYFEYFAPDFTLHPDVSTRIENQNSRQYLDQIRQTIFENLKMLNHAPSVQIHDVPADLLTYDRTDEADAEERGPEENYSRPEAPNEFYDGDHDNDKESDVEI
Sequence of human recombinant HDAC3 (Q9Y618 395-489 partner limits assumed): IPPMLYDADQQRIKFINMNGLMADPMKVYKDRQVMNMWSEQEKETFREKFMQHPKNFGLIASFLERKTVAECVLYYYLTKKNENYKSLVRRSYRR

Compound: CC(=O)Nc1ccc(C(=O)Nc2ccccc2O)cc1 [ST01, 4-Acetamido-N-(2-hydroxyphenyl)-benzamide]
- IC50 (HDAC2; [3]): > 10000 nM
- IC50 (HDAC1; [4]): > 10000 nM

Compound: COc1cc(COc2ccc(-c3ccccc3)cc2NC(=O)c2ccc(NC(C)=O)cc2)c([N+](=O)[O-])cc1OC [ST17, 4-Acetamido-N-(4-((4,5-dimethoxy-2-nitrobenzyl)-oxy)-[1,1′-biphenyl]-3-yl)-benzamide]
- EC50 (MDA-MB-231 cells; incubation time 120 h, no irradiation): 11.2 ± 1.7 µM
- EC50 (MDA-MB-231 cells; with UV irradiation (10 min, 365 nm) of ST17, 120 h): 6.78 ± 0.58 µM
- IC50 (human recombinant HDAC3; HDAC3 IC50, preincubation of enzyme and inhibitor 1 h at RT, no irradiation): > 10 µM
- IC50 (human recombinant HDAC3; HDAC3 IC50, with UV irradiation (10 min, 365 nm) of ST17, preincubation 1 h at RT): 8.58 ± 0.76 µM
- EC50 ([1]; 18 h): 3550 ± 2000 nM
- EC50 [1]: 783 ± 139 nM
- increase of activity by light-induced activation compared to untreated ST17, MDA-MB-231 ([1]; whole cell HDAC assay): 4.5 fold
- conversion to parent HDAC inhibitor ST13 upon irradiation (HPLC) ([2]; λ = 365 nm, in DMSO, room temperature): 82%
- concentration of released ST13 following irradiation (HPLC) ([2]; initial ST17 concentration 100 µM, 365 nm): 81.67 µM
- IC50 (human recombinant HDAC6): > 10 µM
- IC50 (human recombinant HDAC6; read-out: HDAC6 IC50, with UV irradiation (10 min, 365 nm) of ST17, preincubation 15 min at RT): > 10 µM
- IC50 (HDAC2; [3]): 1710 ± 830 nM
- IC50 (HDAC2; HDAC2 IC50, with UV irradiation (10 min, 365 nm) of ST17, preincubation 1 h at RT): 72 ± 12 nM
- EC50 (MV-3 cells; MV-3, light or radiation study, incubation time 120 h, no irradiation): 16.2 ± 4.1 µM
- EC50 (MV-3 cells; MV-3, light or radiation study, with UV irradiation (10 min, 365 nm) of ST17, 120 h): 4.64 ± 0.93 µM
- IC50 (HDAC1; [4]): 840 ± 308 nM
- IC50 (HDAC1; HDAC1 IC50, with UV irradiation (10 min, 365 nm) of ST17, preincubation 1 h at RT): 40 ± 8 nM
- EC50 (HDACs in MV-3 cells; 18 h): 5.98 ± 1.24 µM
- EC50 (HDACs in MV-3 cells): 0.392 ± 0.07 µM
- increase of activity by light-induced activation compared to untreated ST17, MV-3 (HDACs in MV-3 cells; whole cell HDAC assay): 15 fold

Compound: CCCNNC(=O)c1ccc(CN(CC(=O)NCc2ccccc2)C(=O)c2ccc(N(C)C)cc2)cc1 [compound 5]
- IC50 (HDAC6): 10 µM

Compound: O=C(CCCCCCC(=O)Nc1ccccc1)NO [vorinostat, reference compound]
- EC50 (MV-3 cells; MV-3, 72 h): 1.88 ± 0.73 µM
